# Test results reported in PMC8721105, “Novel Trypanocidal Inhibitors that Block Glycosome Biogenesis by Targeting PEX3–PEX19 Interaction” (Frontiers in Cell and Developmental Biology, 2021).
# Where “and” joins values, the source holds several entries; their conditions need not be identical. Identical values can stand only once. Entries after “also recorded” stand apart in the source; their conditions may differ. Like-named read-outs stand apart in the source and are kept apart here.
# What was measured:
# [1] = ref ChemBridge, cited from earlier work; for Hacc (hydrogen bond acceptor) / Hdon (hydrogen bond donor): provided by the compound library supplier; for LogSw: supplier data
# [2] = tested on: GST-TbPEX3d44; assay: NMR saturation transfer difference (STD) with GST-TbPEX3; format: binding, Trypanosoma brucei; settings: for STD NMR effect with GST-TbPEX3: 10 μM protein, 300 µM ligand
# Description: (§1) NMR saturation transfer difference (STD) experiments ([Mayer and Meyer, 1999]) were carried out on a Bruker AVIII 600-MHz spectrometer equipped with a cryoprobe and a SampleJet auto sampler. One-dimensional (1D) and STD spectra were acquired at 298 K. Compounds were dissolved in DMSO-d6 to a final concentration of 50 mM. STD experiments with GST-TbPEX3, TbPEX19-His, and GST-His were performed in PBS (pH 7.4), 10% D2O at a protein concentration of 10 μM, and a ligand concentration of 300 µM. Saturation time and interscan delay within STD experiments were set to 2 and 2.5 s, respectively.
# [3] = target: TbPEX3–TbPEX19 interaction (Trypanosoma brucei brucei, UniProt Q383Q3); assay: AlphaScreen TbPEX3–TbPEX19 inhibitor screening and dose response; format: binding; settings: for Activity scores (robust z-scores) / Note (activity in the screen): primary AlphaScreen screen, 10 μM compound
# Description: The above solutions were prepared in the reaction buffer [0.5% BSA v/v, 0.05% Tween 80 v/v, 0.2 mM DTT, PBS (pH7.4)] on the day of assay, diluting the compounds from 1 mM stocks in DMSO. Compounds were incubated with the proteins for 30 min at room temperature (RT). Five microliters of AlphaScreen Nickel-chelate acceptor beads (cat. no. 6760619C, PerkinElmer®) and AlphaScreen Glutathione donor beads (cat. no. 6765300, PerkinElmer®) were distributed to the mixture consecutively, with a 15-min interval. The complete 25-μl reaction solutions were incubated for 45 min at RT in the dark, and Alpha signals were captured with Cytation 5 plate reader (BioTek®) with the gain value set at 180. Schematic representation of the experiment setup of the high-throughput screening assays was prepared with BioRender.com.
# Following initial hit selection, 10 μM of drugs were tested with GST-His (54 nM) and TbPEX19/TbPEX3 (5 nM) in smaller scale, and the level of signal was normalized (in %) and compared.
# [4] = Cytotoxicity test on HepG2 cells; settings: human
# [5] = tested on: T. brucei BSF427; assay: T. brucei cell viability, resazurin-based assay; set-up: species or system Trypanosoma brucei
# Description: BSF strain Lister 427 (termed hereafter as BSF427) and cell line 90-13 (stably expressing Tet repressor) were used in this study. BSF cells were grown in HMI-11 medium and maintained in logarithmic phase [below 2 × 10^6 cells/ml as described in [Kalel et al. (2019)]]. Genomically integrated stable transfections were performed with NotI-linearized plasmid constructs (pGN1-TbPEX11), which integrate into the spacer region of the ribosomal RNA repeat locus in the genome of cell line 90-13, and the clones were selected using blasticidin as described previously ([Kalel et al., 2015]). Expression of TbPEX11-GFP was confirmed with fluorescence microscopy following induction tests (data not shown) with a serial dilution of tetracycline, and minimal concentration (5 ng/ml) of tetracycline was used to achieve expression of the protein in more than 80% of the cells.
# T. brucei BSF427 and compound dilutions were mixed in 1 : 1 (v/v) ratio to total volume of 200 μl, to reach final concentrations of 2 × 10^3 cells/ml and 0.19–100 μM of inhibitors, in quadruplicates in 96-well plates. Culture medium with no cells was used as negative control and cultures without presence of compounds as positive control representing normal rate of cell growth. Cells were grown at 37°C in an incubator with humidified air containing 5% CO2 for 3 days. Cell viabilities were measured quantitatively using resazurin dye, by adding 25-µl resazurin (0.1 mg/ml in HBSS) to each well, and the mixture incubated for 6 h in the incubator. Fluorescence emission was detected at 570 and 585 nm after excitation at 530 nm, and fluorescence at 570 nm was subtracted from 585 nm. The inhibition curves were fitted with normalized fluorescence signal (in percentage) against concentration of compounds in Log10 scale using GraphPad Prism, and best fit was used for EC50 estimation. Chemical structures were drawn with ChemDraw 20.0.
# [6] = target: T1, GST-His (Schistosoma japonicum, UniProt P08515); assay: NMR saturation transfer difference (STD) with GST-His control; format: binding; settings: 10 μM protein, 300 µM ligand
# T1 construct: made in house; host or cells: E. coli BL21(DE3)
# Description: as §1
# [7] = tested on: T. brucei bloodstream form parasites; assay: Immunofluorescence microscopy of glycosomal aldolase localization; format: cell-based, Trypanosoma brucei; settings: 24 h treatment
# Description: BSF 90-13 cells with genomically integrated PEX11-GFP were induced with 5 ng/ml of tetracycline and cultured overnight to initiate stable expression of PEX11-GFP. BSF427- and PEX11-GFP–expressing cells were treated for 24 h with 100 μM, 50 and 25 μM of each of the inhibitor, and DMSO was used as control. Compound-treated cultures with growth rates of about 50% compared to the DMSO control were harvested and stained for immunofluorescence and statistical analysis. Cells were fixed with 4% paraformaldehyde in PBS containing 250 mM sucrose for 20 min. Fixed cells were immobilized on adhesive slide (StarFrost®) pre-coated with 10% (v/v) of poly-L-lysine (Sigma-Aldrich®) in water after 1-h incubation at RT. Cells were permeabilized with 0.1% (v/v) Triton X-100 in PBS (pH7.4) for 15 min and blocked in buffer D [PBS supplemented with 1% (w/v) BSA and 0.25% (v/v) Tween 20] for 1 h. Anti-TbAldolase primary antibody was used at 1:500 dilution in buffer D for 1.5 h incubation. After five washes in PBS for 30 min, samples were treated with Goat anti-rabbit secondary antibody (1:200, v/v, Alexa Fluor™ 594). Samples were washed, dried, and mounted with Mowiol containing 4′,6-diamidino-2-phenylindole (DAPI). Immuno-stained cells were visualized with Zeiss Elyra microscopy. Pictures of stack 3 (of 5), rotation 1 (of 3), and phase 5 (of 5) were chosen for all control and compound-treated samples.
# Chain of TbPEX3–TbPEX19 interaction (Q383Q3 entry or part of it, other chains not shown): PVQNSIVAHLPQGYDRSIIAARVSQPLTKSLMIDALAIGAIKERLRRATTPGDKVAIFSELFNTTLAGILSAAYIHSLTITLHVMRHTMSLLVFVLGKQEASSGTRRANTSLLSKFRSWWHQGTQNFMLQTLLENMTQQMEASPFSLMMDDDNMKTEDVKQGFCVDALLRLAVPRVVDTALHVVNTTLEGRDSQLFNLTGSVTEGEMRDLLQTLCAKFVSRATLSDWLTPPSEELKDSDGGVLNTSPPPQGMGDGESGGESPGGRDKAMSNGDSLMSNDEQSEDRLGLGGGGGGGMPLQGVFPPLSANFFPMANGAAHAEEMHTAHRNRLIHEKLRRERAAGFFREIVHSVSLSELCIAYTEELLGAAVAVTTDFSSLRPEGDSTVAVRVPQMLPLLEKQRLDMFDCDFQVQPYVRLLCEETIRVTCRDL
# T1 sequence (P08515 whole entry): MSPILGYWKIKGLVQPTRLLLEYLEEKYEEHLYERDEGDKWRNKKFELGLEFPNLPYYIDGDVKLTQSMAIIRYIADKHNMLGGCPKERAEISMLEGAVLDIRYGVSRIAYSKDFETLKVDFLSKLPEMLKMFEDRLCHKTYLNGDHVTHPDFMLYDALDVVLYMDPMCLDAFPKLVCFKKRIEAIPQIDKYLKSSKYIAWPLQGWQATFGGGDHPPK
Activity scores (robust z-scores) [3],Note (activity in the screen) [3],Compound,Hacc (hydrogen bond acceptor) [1],Hdon (hydrogen bond donor) [1],LogSw [1],also measured
,,"CC(CCNC(=O)N1CCC(Oc2ncccn2)CC1)n1ccnc1 (stereo not drawn) [Compound 6, N-[3-(1H-imidazol-1-yl)butyl]-4-(pyrimidin-2-yloxy)piperidine-1-carboxamide]",5,1,-2.34,STD NMR effect with GST-TbPEX3 [2]: show STD signal; also recorded: consistent STD effects; Inhibition of TbPEX3–PEX19 interaction (in words) [3]: did not inhibit
0.7988,Not active,"CC(=O)Nc1ccccc1NC(=O)CN(C)Cc1cnn(C)c1 [Compound 67602110, N~1~-[2-(acetylamino)phenyl]-N~2~-methyl-N~2~-[(1-methyl-1H-pyrazol-4-yl)methyl]glycinamide]",4,2,-2.21,
,,"CCNC(=O)c1cc(NC(=O)C2CCOCC2)ccc1Cl [Compound 5, N-{4-chloro-3-[(ethylamino)carbonyl]phenyl}tetrahydro-2H-pyran-4-carboxamide]",3,2,-2.58,STD NMR effect with GST-TbPEX3 [2]: show STD signal; also recorded: consistent STD effects; Inhibition of TbPEX3–PEX19 interaction (in words) [3]: did not inhibit
,,"CN[C@@H]1C[C@H](N)[C@@H](O)[C@H](O[C@H]2O[C@H](CO)[C@H](O)[C@@H]3O[C@@]4(O[C@@H]23)O[C@H]([C@H](N)CO)[C@H](O)[C@H](O)[C@H]4O)[C@H]1O [Hygromycin, reference compound]",,,,EC50 [4]: 16.2 µM
2.5166,Not active,"CC(C)c1cc(C2CCCN2C(=O)c2ccc(-c3nnn(C)n3)cc2)no1 (stereo not drawn) [Compound 54866350, 5-(4-{[2-(5-isopropylisoxazol-3-yl)pyrrolidin-1-yl]carbonyl}phenyl)-2-methyl-2H-tetrazole]",6,0,-2.94,
,"Active, require characterization","CCN(Cc1nccn1C)Cc1nccn1-c1ccc(OC)cc1 [Compound 26410952, N-{[1-(4-methoxyphenyl)-1H-imidazol-2-yl]methyl}-N-[(1-methyl-1H-imidazol-2-yl)methyl]ethanamine]",4,0,-3.12,
,"Active, require characterization","COc1cc(CN2CCCN(Cc3ccccn3)CC2)cc2c1OCO2 [Compound 25282511, 1-[(7-methoxy-1,3-benzodioxol-5-yl)methyl]-4-(pyridin-2-ylmethyl)-1,4-diazepane]",6,0,-0.93,
,"Active, require characterization","Cc1cc(=O)n(CCN(Cc2ccccn2)CC2CCCO2)c(=O)[nH]1 (stereo not drawn) [Compound 54483906, 6-methyl-3-{2-[(pyridin-2-ylmethyl)(tetrahydrofuran-2-ylmethyl)amino]ethyl}pyrimidine-2,4(1H,3H)-dione]",5,1,-1.32,
,,"Cc1ccc(C(=O)Nc2ccc(S(=O)(=O)O)c3cc(S(=O)(=O)O)cc(S(=O)(=O)O)c23)cc1NC(=O)c1cccc(NC(=O)Nc2cccc(C(=O)Nc3cc(C(=O)Nc4ccc(S(=O)(=O)O)c5cc(S(=O)(=O)O)cc(S(=O)(=O)O)c45)ccc3C)c2)c1 [suramin, reference compound]",,,,"EC50 ([5]; Trypanosoma brucei, 72 h, read-out: T. brucei EC50, BSF427, 3 days of incubation, resazurin, positive control): 0.037 µM; EC50 ([5]; read-out: T. brucei EC50, BSF427, 3 days of incubation, resazurin, positive control): 0.0371 µM"
,,"Cn1ccnc1CNCCOc1cccc2cccnc12 [Compound 4, N-[(1-methyl-1H-imidazol-2-yl)methyl]-2-(quinolin-8-yloxy)ethanamine]",4,1,-1.26,"EC50 ([4]; HepG2 cells, Human cell cytotoxicity (EC50), HepG2, serial dilutions of up to 200 µM): > 200 µM; STD NMR effect with GST-TbPEX3 [2]: significant STD effects; also recorded: strong STD signal; Target protein (NMR analysis) ([2]; protein assigned as target, GST-TbPEX3, TbPEX19-His and GST-His tested): TbPEX3; STD NMR effect with GST-His control [6]: not to GST-His; also recorded: not with TbPEX19 or GST; EC50 ([5]; BSF427, 3 days of incubation, resazurin, read-out: T. brucei toxicity (EC50)): 71 µM; EC50 ([5]; Trypanosoma brucei, 72 h, BSF427, 3 days of incubation, resazurin, read-out: T. brucei toxicity (EC50)): 70.7 µM; IC50 [3]: 0.5 µM; Aldolase labeling phenotype (in words) [7]: patches of stained aldolase; Mislocalization (% of No. of cells) of aldolase ([7]; cultures with 50% of the growth rate of DMSO control): ~14% and 14.3% and ~15%"
1.4019,Not active,"COc1cccc(N2CCN(C(=O)c3cccc(-c4cn[nH]c4)c3)CC2)c1 [Compound 92838291, 1-(3-methoxyphenyl)-4-[3-(1H-pyrazol-4-yl)benzoyl]piperazine]",3,1,-3.20,
,"Active, require characterization","COCCN(Cc1cn2ccc(C)cc2n1)Cc1nccs1 [Compound 79442734, (2-methoxyethyl)[(7-methylimidazo[1,2-a]pyridin-2-yl)methyl](1,3-thiazol-2-ylmethyl)amine]",4,0,-2.43,
0.2733,Not active,"CNC(=O)c1cccc(NC(=O)C2CCOC(C)(C)C2)c1C (stereo not drawn) [Compound 31960442, 2,2-dimethyl-N-{2-methyl-3-[(methylamino)carbonyl]phenyl}tetrahydro-2H-pyran-4-carboxamide]",3,2,-2.90,

Compound,Activity scores (robust z-scores) [3],Note (activity in the screen) [3],Hacc (hydrogen bond acceptor) [1],Hdon (hydrogen bond donor) [1],LogSw [1],also measured
"O=C(Cc1cccs1)N1C[C@H](O)[C@@H](N2CCCCC2)C1 (racemic) [Compound 41601289, rac-(3S,4S)-4-piperidin-1-yl-1-(2-thienylacetyl)pyrrolidin-3-ol]",0.3122,Not active,3,1,-2.24,
